{"source": "patent US10195181B2", "about": "“Carboxamide derivatives” (Novartis AG, priority 2014, dated 2019)", "target": "Smurf-1 (Homo sapiens (Human), UniProt Q9HCE7)", "sequence (Q9HCE7 whole entry)": "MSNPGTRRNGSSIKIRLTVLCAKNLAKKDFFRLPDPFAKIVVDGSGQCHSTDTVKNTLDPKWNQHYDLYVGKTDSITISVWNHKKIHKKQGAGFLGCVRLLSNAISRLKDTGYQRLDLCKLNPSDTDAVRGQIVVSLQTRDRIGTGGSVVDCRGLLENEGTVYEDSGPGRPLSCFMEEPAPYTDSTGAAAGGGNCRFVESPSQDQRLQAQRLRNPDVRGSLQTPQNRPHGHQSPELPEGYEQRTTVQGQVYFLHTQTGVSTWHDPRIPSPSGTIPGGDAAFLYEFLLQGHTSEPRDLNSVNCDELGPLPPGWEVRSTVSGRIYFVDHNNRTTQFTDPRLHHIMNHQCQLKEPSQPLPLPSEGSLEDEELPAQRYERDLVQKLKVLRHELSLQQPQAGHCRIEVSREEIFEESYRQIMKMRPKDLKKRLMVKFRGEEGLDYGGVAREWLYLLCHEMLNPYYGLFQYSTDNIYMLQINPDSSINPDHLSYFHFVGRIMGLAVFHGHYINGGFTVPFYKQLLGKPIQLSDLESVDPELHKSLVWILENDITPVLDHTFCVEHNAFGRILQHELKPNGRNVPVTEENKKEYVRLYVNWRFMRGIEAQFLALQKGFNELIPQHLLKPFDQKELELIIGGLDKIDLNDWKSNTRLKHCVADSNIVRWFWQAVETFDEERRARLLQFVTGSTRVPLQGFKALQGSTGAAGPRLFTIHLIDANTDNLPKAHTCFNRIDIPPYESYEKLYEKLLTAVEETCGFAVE", "test": "HECT E3 ligase autoubiquitinylation TR-FRET assay (Smurf-1)", "format": "biochemical", "source_text": "To determine the HECT E3 ligase selectivity of the compounds, a panel of biochemical HECT E3 ligase autoubiquitinylation assays was employed (Smurf-1, Smurf-2, WWP1, WWP2, ITCH, Nedd4, Nedd4L and E6AP). The conjugation of ubiquitin to a protein substrate is a multistep process. In an initial ATP-requiring step, a thioester bond is formed between the carboxyl terminus of ubiquitin and an internal cystein residue of the ubiquitin-activating enzyme (E1). Activated ubiquitin is then transferred to a specific cystein residue of an ubiquitin-conjugating enzyme (E2). E2s donate ubiquitin to a HECT E3 ligase (E3) from which it is transferred to the substrate protein. HECT E3 ligases can auto-ubiquitinylate. This event is detected in the TR-FRET (Time-Resolved Fluorescence Resonance Energy Transfer) assay used in this panel. […] When these two fluorophores are brought together by a biomolecular interaction (in this case ubiquitinylation of the E3 ligase), a portion of the energy captured by the Cryptate during excitation is released through fluorescence emission at 620 nm, while the remaining energy is transferred to XL665. This energy is then released by XL665 as specific fluorescence at 665 nm. […]\nAfter an incubation time of 45 min in the dark, the plates are transferred into the Pherastar fluorescence reader to measure the TR-FRET signal."}
{"smiles": "Cc1c(C(=O)Nc2c(C)n(C)n(C(C)C)c2=O)noc1[C@@H]1CCC[C@H](C(C)(C)C)O1", "note": "(mixture of isomers) [Example 17, 5-((2R,6S)-6-(tert-butyl)tetrahydro-2H-pyran-2-yl)-N-(2-isopropyl-1,5-dimethyl-3-oxo-2,3-dihydro-1H-pyrazol-4-yl)-4-methylisoxazole-3-carboxamide and 5-((2S,6R)-6-(tert-butyl)tetrahydro-2H-pyran-2-yl)-N-(2-isopropyl-1,5-dimethyl-3-oxo-2,3-dihydro-1H-pyrazol-4-yl)-4-methylisoxazole-3-carboxamide]", "values": [{"measurement": "IC50", "result": 980, "unit": "nM"}]}
